Experimental data as given in US20230050846A1, “TREATMENT OF HEPATIC AND CARDIOVASCULAR DISORDERS” (LIFESEARCH, priority 2019, published 2023).
Where two headings read alike, the source gives them in different places. Peptide text beside a SMILES is read from it. * marks the point of attachment. Palmitoyl = CCCCCCCCCCCCCCCC(=O)*

What was measured:
[1] = Stability in plasma and serum (LC-HRMS); type: in vitro ADME, human and mouse; conditions: 37° C.
Description: Peptide of Formula (I) or peptide of Formula (II) were prepared at a concentration of 200 μg/mL in PBS or mixed with EDTA plasma or serum from human (Etablissement Frangais du Sang, EFS) or mouse (C57BL/6J, cardiac puncture). Aliquots from PBS samples (40 μL) were incubated at 4° C. or 37° C. for 0, 1, 2 and 4 weeks. Aliquots from plasma and serum samples (50 μL) were incubated at 4° C. or 37° C. for 0, 1, 2, 4, 6, 12, 24 h.
A mixed solution of peptides of formula (I) and (II) was constituted and serially diluted in PBS to obtain seven standard solutions, ranging from 200 μg/mL to 0.2 μg/mL. In parallel, a mixed solution of labelled peptides of Formula (I) and (II) (Thermo Scientific, Biopolymers Darmstadt, Germany) was prepared in PBS at 100 μg/mL. The mixed solution of labelled peptides (25 μL) was added to 25 μL of standard solutions as well as to PBS, plasma and serum samples. Acetonitrile (150 μL) was added to each sample to precipitate plasma/serum proteins. After centrifugation (10,000×g, 4° C., 10 min), the clear supernatants (150 μL) were dried under a gentle stream of nitrogen (45° C.), reconstituted with 10% acetonitrile containing 0.1% formic acid (100 μL), and injected into the liquid chromatography-high-resolution mass spectrometry (LC-HRMS) system. LC-HRMS analyses were performed on an H-Class UPLC system (Waters Corporation, Milford, Mass., USA) by injection of 10 μL of samples onto an Acquity® Peptide CSH C18 column (2.1 mm×150 mm, 1.7 μm; Waters Corporation) held at 60° C. The mobile phase was composed of 5% acetonitrile as solvent A and 100% acetonitrile as solvent B, each containing 0.1% formic acid. The elution was carried out using a gradient of solvent B in solvent A over 20 min at a constant flow rate of 250 μL/min. […] HRMS detection was performed by a Synapt G2 HRMS Q-TOF mass spectrometer equipped with a Z-Spray interface for electrospray ionization (Waters Corporation). The resolution mode was applied in a mass-to-charge (m/z) ratio ranging from 200 to 4,000 at a mass resolution of 25,000 Full Width Half Maximum in the positive ionization mode. Ionization parameters were as follow: capillary voltage of 3 kV, cone voltage of 30 V, desolvatation gas flow of 900 L/hr, source temperature of 120° C., desolvatation temperature of 450° C., Nitrogen as desolvatation gas. Data were collected in the continuum mode at a rate of four spectra per second. […] Peptides were analyzed according to their major exact m/z (i 5 ppm, Table 1) and each peptide signal was normalized with that of its labelled internal standard. Peptide concentrations were calculated using calibration curves plotted from standard solutions (linear regression, 1/x weighted, origin excluded).

[2] = tested on: LDLR knock-out mice; experiment: Biliary lipid secretions, gallbladder cannulation, dyslipidemic LDLR KO mice; type: in vivo, mouse; conditions: dyslipidemic LDL KO mice, ip 25 mg/kg, 2 h
Description: Wild-type C57B/L6J male mice were purchased from Janvier Labs (Le Genest Saint Isle, France). LDLR knock-out mice (males, C57B/L6J background) were obtained from The Jackson Laboratory (Bar Harbor, Me., USA). Mice were caged in animal rooms under specific pathogen free conditions at the animal facility of Rangueil (Anexplo platform, US006, Toulouse, France) with a light/dark schedule of 12 h/12 h and were fed ad libitum with a normal chow diet (#V1535 R/M-H, Ssniff, Germany). […]
Depending of experiments, 8 weeks old mice were intraperitoneally injected with PBS, the peptide of formula (I), the peptide of formula (II) and SCR. […] Bile flow (expressed in μL/min/100 g of body weight) was determined gravimetrically assuming a density of 1 g/mL for bile. […]
For bile acid analysis, 1 μL of bile samples was diluted with 99 μL of milliQ water then incubated with the work reagent (6 mg NAD, 0.5 M hydrazine hydrate buffer, 0.05 M Na-pyrophosphate) for 4 min. The mix was then incubated with a start reagent (0.03 M Tris-EDTA; 0.3 U/mL 3-alpha-OH steroid dehydrogenase) and measured for 30 min, under excitation of 340/330 nm and emission of 440/420 nm. […] The mix was then incubated with a start reagent (1 M MOPS, pH 8, 50 U/mL Choline oxidase) and measured for 67.5 min, under excitation of 340/330 and emission of 440/40. […]

[3] = EDTA plasma, read-out: recovery of the peptide in plasma
[4] = serum, read-out: recovery of the peptide in serum

recovery at 24 h, 200 μg/mL [1, 3] [%]	recovery at 24 h, 200 μg/mL [1, 4] [%]	Molecule	stimulation of biliary flux and biliary lipid secretion [2]
50	100	CCCCCCCCCCCCCCCC(=O)NCCCC[C@H](NC(=O)[C@H](CCC(=O)O)NC(=O)[C@H](CCCNC(=N)N)NC(=O)[C@H](CO)NC(=O)[C@H](CCC(N)=O)NC(=O)[C@H](C)NC(=O)[C@H](CCCNC(=N)N)NC(=O)[C@H](Cc1ccccc1)NC(=O)[C@H](Cc1ccc(O)cc1)NC(=O)[C@H](CCCNC(=N)N)NC(=O)[C@H](CCC(=O)O)NC(=O)[C@H](CCC(=O)O)NC(=O)[C@H](CCC(=O)O)NC(=O)[C@H](C)NC(=O)[C@H](CCC(N)=O)NC(=O)[C@H](CCC(=O)O)NC(=O)[C@H](CCCNC(=N)N)NC(=O)[C@H](CCCCN)NC(=O)CNC(=O)[C@H](Cc1ccccc1)NC(=O)[C@H](C)NC(=O)CNC(=O)CNC(=O)[C@H](C)NC(=O)[C@H](CCC(=O)O)NC(=O)[C@H](CCCNC(=N)N)NC(=O)[C@@H](NC(=O)[C@H](CO)NC(=O)CNC(=O)[C@H](C)NC(=O)CNC(=O)[C@H](CCCNC(=N)N)NC(C)=O)[C@@H](C)CC)C(N)=O [peptide of formula (II), CH3CO-[SEQ ID NO: 1]-K-[palmitoyl]-NH2] (Ac-RGAGSIREAGGAFGKREQAEEERYFRAQSREK(Palmitoyl)-NH2)	maintained
10	30	Ac-RGAGSIREAGGAFGKREQAEEERYFRAQSRE-NH2 [peptide of formula (I), CH3CO-[SEQ ID NO: 1]-NH2]	maintained
